Reference: the NIST ThermoML archive (doi:10.1021/acs.jced.9b00078)

Assay: xn = mol fraction of the nth substance listed
Conditions: Liquid, Other PVT measurement

CCCCCCCCCCCCCCCC [hexadecane] + O=C=O
mass density [kg/m3]
Conditions	303.2 K	313.2 K	333.2 K	353.2 K	373.2 K	393.2 K	413.2 K	433.2 K	453.2 K	473.2 K
10000 kPa, x2 = 0.2555	780.45	773.23	758.92	744.43	729.96	715.39	700.19	685.46	670.23	654.67
10000 kPa, x2 = 0.3703	–	778.18	759.26	746.79	731.25	715.75	698.68	681.51	664.54	647.28
20000 kPa, x2 = 0.2555	787.34	780.1	766.68	753	739.28	725.96	712.05	698.1	684	670.22
20000 kPa, x2 = 0.3703	793.48	785.88	771.19	756.53	742.07	727.42	712.39	697.06	681.26	665.86
30000 kPa, x2 = 0.2555	794.56	787.59	774.7	761.96	749.11	736.15	723.64	710.65	697.79	684.48
30000 kPa, x2 = 0.3703	801.32	793.73	780.08	766.24	752.26	738.82	725.13	711.36	697.06	683.13
30000 kPa, x2 = 0.7348	839.16	828.9	807.53	785.71	763.15	741.75	718.23	696.05	671.94	647.71
30000 kPa, x2 = 0.8645	872.71	857.83	827.32	793.96	758.29	725.26	688.46	649.67	613.21	578.59
40000 kPa, x2 = 0.2555	800.47	793.9	781.61	769.42	757.25	745.02	732.84	721.13	708.66	696.75
40000 kPa, x2 = 0.3703	807.74	800.81	787.53	774.17	761.32	748.53	735.68	723.06	709.8	697.04
40000 kPa, x2 = 0.7348	848.5	839.65	821.38	800.32	779.76	758.8	738	717.02	695.98	675.69
40000 kPa, x2 = 0.8645	885.49	870.69	840.65	812.52	785.33	757.98	729.63	702.92	673.61	644.14
50000 kPa, x2 = 0.2555	807.2	800.32	788.15	776.26	764.83	753.11	741.57	730.38	718.53	707.53
50000 kPa, x2 = 0.3703	814.58	807.06	794.36	782.12	769.45	756.96	744.66	732.8	720.85	708.83
50000 kPa, x2 = 0.7348	860.91	850.12	831.42	812.92	793.19	773.38	755.78	736.34	717.38	698.15
50000 kPa, x2 = 0.8645	900.22	885.44	859.09	833.73	810.58	783.06	759.09	735.07	709.83	685.57
